The values that follow come from US20140050754A1, “IMMUNOGENIC CHIKUNGUNYA VIRUS PEPTIDES” (priority 2010, published 2014).

Assay [1] relates to CHIKV (SGP11) infection of HEK 293T cells. The experiment in a line: Affinity depletion of anti-E2EP3 antibodies, read by in vitro neutralization assay. As to conditions: plasma 1:500; about 20% with non-depleted plasma. In kind it is cell-based, Chikungunya virus. How it is done:
(§1) Neutralizing activity of CHIKV-infected patient samples were test in triplicates and were analyzed by immunofluorescence-based cell infection assay in HEK 293T cells, using Singapore strain CHIKV (SGP11). CHIKV were mixed at MOI 10 with diluted (1:100, 500 or 1,000) heat-inactivated human plasma and incubated for 2 hours at about 37° C. with gentle agitation (350 rpm). Virus-antibody mixtures were then added to HEK 293T cells seeded in 96-well plates and incubated for 1.5 hours at about 37° C. Virus inoculums (medium) were removed, and cells were replenished with DMEM medium supplied with 5% FBS and incubated for about 6 hours at about 37° C. before fixation with 4% paraformaldehyde followed by immunofluorescence quantification using the Cellomics ArrayScan V. The Cellomics ArrayScan. V was used as a complementary means of assessing neutralization capabilities of patients' plasma (same set-up as mentioned above), but involves an assessment endpoint at 6 hours post-infection (pi) to capture possible early protective responses against virus infection. Percentage infectivity was detected with High Content Screening and was calculated according to the equation: % Infectivity=100×(% responder from sero-neutralization group/% responder from virus infection group).
(§2) For affinity depletion of human anti-E2EP3 antibodies, synthetic biotinylated E2EP3 peptide (EMC microcollections GmbH) was added at 450 ng/well to streptavidin-coated plates (Pierce) and incubated at room temperature for about 1 hour in PBS containing 0.1% Tween-20 (0.1% PBST). Human plasma samples were added and incubated for about 25 minutes at room temperature for absorption. The unbound portion was collected after 21 rounds of absorption. ELISA analysis was performed to verify the levels of the antibodies during affinity depletion.
In FIG. 9(d), in vitro neutralizing activity of anti-E2EP3 antibodies against CHIKV-infected patients' plasma samples was observed. […] Outputs were expressed as percentage control infection. […]

For assay [2], the system named is E2EP3-specific IgG3 antibodies in pooled patients' plasma. The experiment in a line: Affinity depletion of anti-E2EP3 antibodies, read by E2EP3 specific peptide-based ELISA. To be noted: pooled plasma median 10 days pio, relative to non-depleted samples. In kind it is binding, human. How it is done:
as §2
Plasma samples (Median 10 days pio) were incubated with E2EP3 (K3, N5, K10), E2EP3 with double alanine substitution at lysine residues (K3A, N5, K10A) or triple alanine substitution at lysine and asparagine (K3A, N5A, K10A) peptides. E2EP3 specific peptide-based ELISA was performed to measure the depletion efficiency. Outputs were expressed as percentage control IgG3 titer from non-depleted samples. Data were presented as mean±SD. Examples were performed in triplicates.
(ELISA stands for enzyme-linked immunosorbent assay.)

Assay [3] concerns anti-CHIKV IgG3 antibodies in pooled patients' plasma. In words: Affinity depletion of anti-E2EP3 antibodies, read by virion-based ELISA. As to conditions: pooled plasma median 10 days pio, whole virus ELISA, relative to non-depleted samples. In kind it is binding, human. How it is done:
[…]; 50 μl/well). Wells were blocked with PBST-milk (PBS, 0.05% Tween 20, 5% non-fat milk) and plates were incubated for about 1.5 hours at about 37° C. Plasma samples were then diluted 1:500, 1:2000 in PBST-milk and incubated 1 hour at about 37° C. HRP-conjugated mouse anti-human IgG, IgG1, IgG2, IgG3, IgG4 and IgM (Molecular Probes) were used to detect human antibodies bound to virus-coated wells. Reactions were developed using TMB substrate (Sigma-Aldrich) and stopped with stopping reagent (Sigma-Aldrich). The absorbance was measured at 450 nm. Healthy donor samples were used as controls. ELISA determinations were done in duplicates and the values plotted as means±standard error means (SEM).
as §2
In FIG. 9(c), depleted samples as described in FIG. 9(b) were subjected to anti-CHIKV IgG3 antibodies detection. Virion-based ELISA was performed as described to measure the depletion efficiency. Outputs were expressed as percentage control IgG3 titer from non-depleted samples. Data were presented as mean±SD. Examples were performed in triplicates.

Assay [4] deals with CHIKV (SGP11). The experiment in a line: CHIKV challenge of vaccinated mice: viremia by virus plaque assay. Type of assay: in vivo. To be noted: 2 days post-challenge, challenge 30 days post-vaccination with 10^6 PFU s.c.; PBS control 4,500. How it is done: (§3) Lyophilized KLH-E2EP3 peptide was dissolved in DMSO (Sigma-Aldrich) to a working concentration of 5 mg/mL. Three-weeks old, female, C57BL/6J (sample size, n=7) were vaccinated subcutaneously in the abdominal flank with 100 μg of KLH-E2EP3 peptide prepared in 100 μl emulsion with 50% Complete Freund's Adjuvant (CFA) (Sigma-Aldrich) in PBS. Vaccinated mice were further boosted another two times at day 14 and day 21 with 50 μg of the peptide prepared in Incomplete Freund's Adjuvant (IFA) (Sigma-Aldrich). Control mice (n=7) were vaccinated with PBS/CFA and PBS/IFA on first vaccination and subsequent booster shots respectively. […] Viremia and degree of inflammation were monitored. […] Hind footpads of mice were measured daily using a vernier calliper from day 0 to day 14 post-infection. Measurements were done for the height (thickness) and the breadth of the foot and quantified as [height×breadth]. Degree of inflammation was expressed as relative increase in footpad size as compared to pre-infection with the following formula: [(day x−day 0)÷day 0] where x is the footpad measurements for each respective day post-infection.
(§4) Mice were immunized with E2EP3 peptide complex to KLH or PBS Control emulsified with Complete Freund's Adjuvant (CFA) subcutaneously, and were boosted two more times with Incomplete Freund's Adjuvant (IFA). […] Outputs were expressed as percentage infection relative to PBS Control. […]

For assay [5], the system named is CHIKV (SGP11) infection of HEK 293T cells. The experiment in a line: Peptide blocking assay with human plasma followed by sero-neutralization assay. Type of assay: cell-based, Chikungunya virus. As to conditions: patients' plasma pools 1:500; 20% without peptide. The method, then: as §1, with “group). […]” for “group).”
Outputs were expressed as percentage control infection. […]

For the next assay, the system named is CHIKV infection in vitro. In words: In vitro neutralizing activity of E2EP3-vaccinated mouse sera. In kind it is cell-based, Chikungunya virus. To be noted: sera 27 days post-vaccination, dilution 1:100. How it is done:
as §1, with “V was used as a complementary means of assessing neutralization capabilities of patients' plasma (same set-up as mentioned above), but involves an assessment endpoint at 6 hours post-infection (pi) to capture possible early protective responses against virus infection.” left out
Lyophilized KLH-E2EP3 peptide was dissolved in DMSO (Sigma-Aldrich) to a working concentration of 5 mg/mL. […] Viremia and degree of inflammation were monitored. […] Hind footpads of mice were measured daily using a vernier calliper from day 0 to day 14 post-infection. Measurements were done for the height (thickness) and the breadth of the foot and quantified as [height×breadth]. […]

The subject of assay [6] is CHIKV (SGP11). The experiment in a line: CHIKV challenge of vaccinated mice: footpad swelling (inflammation). Type of assay: in vivo. To be noted: day 0 to day 14 post-challenge. The method, then: as §3, §4
The subject of another assay is C57BL/6J mice. The experiment in a line: KLH-E2EP3 vaccination of mice: E2EP3 specific peptide-based ELISA. Type of assay: in vivo. As to conditions: KLH-linked E2EP3 with CFA/IFA. The method, then:
as §3
Importantly, the sera obtained at 27 days post-vaccination were able to neutralize CHIKV-infection in vitro. In FIGS. 17(a) and 17(b), mouse anti-E2EP3 IgG antibodies were detected after the second and third vaccination. All outputs were expressed as mean±SD. […]

For assay [7], the system named is CHIKV infection of HEK 293T cells. The experiment in a line: Peptide blocking assay with NHP plasma followed by in vitro neutralization assay. In kind it is cell-based, Chikungunya virus. As to conditions: NHP plasma dilution series 1:100 to 1:3200, compared to untreated plasma.

On to K3A/K10A (STADNFNVYAATRPYLAHC), for which the “virus infectivity (percentage control infection) with peptide-depleted plasma” value in [1] is “only a gradual decrease of the neutralizing efficacy”. For the same substance, the “E2EP3-specific IgG3 depleted from patients' plasma by surface-bound peptide” value in [2] was 30%. The “reduction of total anti-CHIKV IgG3 titer after depletion with peptide” value (“reduction of total anti-CHIKV IgG3 titer” for short) in assay [3] was 40%.
As for K3A/N5A/K10A (STADAFNVYAATRPYLAHC), the “virus infectivity (percentage control infection) with peptide-depleted plasma” value in assay [1] is recorded as “only a gradual decrease of the neutralizing efficacy”. In assay [2], the “E2EP3-specific IgG3 depleted from patients' plasma by surface-bound peptide” value is reported as 15%. Also, the “reduction of total anti-CHIKV IgG3 titer” value in assay [3] is on record as 20%.
For STKDNFNVYKATRPYLAHC [E2EP3], the “virus infectivity (percentage control infection) with peptide-depleted plasma” value in [1] is recorded as “more than 50%”. The CHIKV viremia in the assay with CHIKV (SGP11) [4] is on record as 2,000 pfu/mL. For the same substance, the “CHIKV infection (percentage control infection) after blocking with soluble E2EP3 peptide” value in assay [5] is given as approximately 40%. Besides, the “reduction of total anti-CHIKV IgG3 titer” value in assay [3] is approximately 80%. Besides, the “reduction of infectivity compared to the PBS-vaccinated control group” value in the assay on CHIKV infection in vitro is “approximately 40%”. Also, the “maximal footpad swelling of PBS-vaccinated group relative to E2EP3-vaccinated group” value with CHIKV (SGP11) [6] is given as “more than twice”. In addition, the “anti-E2EP3 IgG titer” value with C57BL/6J mice (19 days post-vaccination, after 1st boost) is reported as “Significant anti-E2EP3 titer”; in the assay on C57BL/6J mice (27 days post-vaccination, after 2nd boost) it was “further increased”. In [7], the “effect of soluble peptide on neutralization by CHIKV-infected NHP plasma” value is “abrogated the inhibitory effect of monkey plasma samples significantly”.
